Results on 2 compounds are retold here after patent publication US5945561A, “Retinoid-like compounds” (Bristol-Myers Squibb Company, priority 1998, dated 1999).

Test [1] has as its system trauma-induced caecal adhesions in female Wistar rat. The test is described as follows: Trauma-induced caecal adhesion model in rats (oral treatment once daily for 7 days, examined on seventh postoperative day). The format is in vivo. The note with it: 1 × daily for 7 days, N = 5, female Wistar rats; for Mean number of adhesions/rat +/- SD: vehicle (peanut oil) 15.4 +/- 4.8; for Mean Adhesion Severity/Rat +/- SD: vehicle (peanut oil) 39.2 +/- 15. The protocol:
Models of peritoneal adhesions induced by surgical trauma have been used to predict the clinical activity of a number of marketed anti-adhesion barrier devices. One such model is the trauma-induced caecal adhesion model in rats.
Adult female Wistar rats were used in our studies. The trauma induction was carried out using aseptic conditions in animals anesthetized with a mixture of Ketamine (100 mg/kg) and Rompun (10 mg/kg) given IP. A 2 cm midline abdominal incision was made and the caecum was exteriorized. Both sides of the caecum were abraded with a dry gauze until there was evidence of punctate bleeding. After replacing the organ in the abdominal cavity, the incision was closed. Trauma to the caecum produces fibrous scar tissue or adhesions to adjacent organs, peritoneal wall, or the omentum. Animals were treated with test compound orally. Oral treatments were administered once daily for up to 7 days.
On the seventh postoperative day, the animals were sacrificed and the peritoneal cavity was exposed and examined for adhesions. Three criteria that were used to evaluate the adhesions are: severity of the adhesions, extent or area of the ceacum involved with adhesions and the number of adhesions formed in each animal. Statistical analysis of the data was performed using students' T test. The following scoring system was used:
1.0 = easily separable, filmy, non-vascularized adhesions
covering 25% of the caecum;
2.0 = dense adhesions separated by blunt dissection and in-
volving 50% of the caecum;
3.0 = dense, fibrous, vascularized adhesions requiring sharp
dissection and covering 75% of the caecum;
4.0 = severe, dense, vascularized adhesions unable to
separate without tearing the adjacent membranes and
covering greater than 75% of the caecum.
The Dose Dependent Effect of Orally Dosed Test Compound on Trauma-induced Ceacal Adhesions in Female Wistar Rat

A further test has as its system HL60 cells. The test is described as follows: Differentiation and apoptosis of HL60 cells (NBT staining). The format is cell-based. The note with it: culture up to 9 days; for EC50 (culture day necessary to convert cells into a differentiated or apoptosed phenotype): HL60 cells, 1 μm compound, NBT staining. An excerpt: At the end of each day of the culture period, cells were washed and stained with NBT (nitro blue tetrazolium) and counted.

As for `CC1(C)CC=C(c2ccccc2)c2cc3cc(-c4ccc(C(=O)O)cc4)ccc3cc21` [Example 1], the “Mean number of adhesions/rat +/- SD” value is 14.6 +/- 2.7 in test [1] (3 mg/kg oral); 12.2 +/- 1.6 in test [1] (10 mg/kg oral); 6.8 +/- 2.4 in test [1] (25 mg/kg oral, * p = 0.03). Further, the “Mean Adhesion Severity/Rat +/- SD” value is recorded as 36 +/- 7.0 in test [1] (3 mg/kg oral); 30.2 +/- 5.5 in test [1] (10 mg/kg oral); 14.8 +/- 5.6 in test [1] (25 mg/kg oral, * p = 0.03). In addition, the “differentiation and apoptosis of HL60 cells, comparison with t-RA” value in the test on HL60 cells (1 μm, result in words) is “comparable to t-RA in this assay”. The “EC50 (culture day necessary to convert cells into a differentiated or apoptosed phenotype)” value in the test with HL60 cells is 6.0 days.
With `CC1=C(/C=C/C(C)=C/C=C/C(C)=C/C(=O)O)C(C)(C)CCC1` [tRA, all-trans retinoic acid, reference compound], the “EC50 (culture day necessary to convert cells into a differentiated or apoptosed phenotype)” value in the test with HL60 cells worked out at 3.2 days.
